# Measurements taken from patent publication US20040248887A1, “Inhibitors of cathepsin S” (IRM LLC, priority 2003, published 2004).
# pKi: −log10 of the molar value.
# Target: Cathepsin S (Homo sapiens, UniProt P25774)
# Test: Cathepsin S inhibition, fluorogenic peptide substrate kinetic assay
# Type: biochemical
# Conditions: Table II; Cathepsin S inhibition constant, pH5.5; read-out: Ki Cat. S
# Method in brief: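 Ki values derive from apparent constants fitted to progress curves, corrected for competition with substrate via [S] and Km. Kinetics were monitored at 380 nm excitation/450 nm emission, after substrate addition (Ac-HPVK-ACC, 50 μM final) to start the reaction.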
# Sequence of Cathepsin S (P25774 115-331, species assumed): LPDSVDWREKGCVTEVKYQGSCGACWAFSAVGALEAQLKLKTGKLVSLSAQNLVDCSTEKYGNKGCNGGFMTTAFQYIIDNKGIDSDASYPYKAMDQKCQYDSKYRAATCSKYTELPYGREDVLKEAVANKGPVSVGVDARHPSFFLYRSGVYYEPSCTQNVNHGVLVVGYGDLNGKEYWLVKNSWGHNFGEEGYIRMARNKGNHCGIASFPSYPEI
row,Compound,pKi
1,"Cc1cccc(C(=O)N[C@@H](Cc2ccc(Cl)cc2)C(=O)NCCN2CCc3cc(F)ccc32)c1 [Compound 199, N-((S)-1-(2-(5-fluoroindolin-1-yl)ethylcarbamoyl)-2-(4-chlorophenyl)ethyl)-3-methylbenzamide]",> 7.00
2,"C[C@@H](CN1CC(C)(C)c2cc(F)ccc21)NC(=O)[C@H](CC1CCCCC1)NC(=O)OC1CCOCC1 [Compound 215, (S,S)-{2-Cyclohexyl-1-[2-(5-fluoro-3,3-dimethyl-2,3-dihydro-indol-1-yl)-1-methyl-ethylcarbamoyl]-ethyl}-carbamic acid tetrahydro-pyran-4-yl ester]",> 7.00
3,"Cc1occ(C(F)(F)F)c1S(=O)(=O)N[C@@H](CC1CCCCC1)C(=O)N[C@@H](C)CN1CCc2cc(F)ccc21 [Compound 253, (S,S)-3-Cyclohexyl-N-[2-(5-fluoro-2,3-dihydro-indol-1-yl)-1-methyl-ethyl]-2-(2-methyl-4-trifluoromethyl-furan-3-sulfonylamino)-propionamide]",> 7.00
4,"CSc1ccc(NC[C@H](C)NC(=O)[C@H](CC2CCCCC2)NC(=O)c2ccc(-c3cccc(F)c3)o2)cc1 [Compound 117, 5-(3-Fluoro-phenyl)-furan-2-carboxylic acid {2-cyclohexyl-1-(S)-[1-(S)-methyl-2-(4-methylsulfanyl-phenylamino)-ethylcarbamoyl]-ethyl}-amide]",> 7.00
5,"C[C@@H](CNc1ccc(S(=O)(=O)N2CCOCC2)cc1)NC(=O)[C@H](CC1CCCCC1)NC(=O)c1ccc(-c2cccc(F)c2)o1 [Compound 136, 5-(3-Fluoro-phenyl)-furan-2-carboxylic acid (2-cyclohexyl-1-(S)-{1-(S)-methyl-2-[4-(morpholine-4-sulfonyl)-phenylamino]-ethylcarbamoyl}-ethyl)-amide]",> 6.00
6,"C[C@@H](CNc1ccc(OC(F)(F)F)cc1)NC(=O)[C@H](CC1CCCCC1)NC(=O)O[C@@H]1CCN(C(=O)OC(C)(C)C)C1 [Compound 185, 3-(R)-{2-Cyclohexyl-1-(S)-[1-(S)-methyl-2-(4-trifluoromethoxy-phenylamino)-ethylcarbamoyl]-ethylcarbamoyloxy}-pyrrolidine-1-carboxylic acid tert-butyl ester]",> 6.00
7,"CC(C(=O)N[C@@H](CC1CCCCC1)C(=O)NCCN1CCc2cc(F)ccc21)c1ccc(Cl)cc1 (stereo partly drawn) [Compound 64, 2-(4-Chloro-phenyl)-N-{2-cyclohexyl-1-(S)-[2-(5-fluoro-2,3-dihydro-indol-1-yl)-ethylcarbamoyl]-ethyl}-propionamide]",> 7.00
8,"COc1ccc(N[C@H]2CCCC[C@H]2NC(=O)[C@H](CC(C)C)NC(=O)c2cccc(C)c2)cc1 (mixture of isomers) [Compound 33, N-{1-(S)-[cis-2-(4-Methoxy-phenylamino)-cyclohexylcarbamoyl]-3-methyl-butyl}-3-methyl-benzamide]",> 6.00
9,"COc1ccc(NC[C@H](C)NC(=O)[C@H](CCC2CCCCC2)NC(=O)c2ccc(-c3cccc(C(F)(F)F)c3)o2)cc1 [Compound 27, 5-(3-Trifluoromethyl-phenyl)-furan-2-carboxylic acid {3-cyclohexyl-(1S)-[2-(4-methoxy-phenylamino)-(1S)-methyl-ethylcarbamoyl]-propyl}-amide]",> 7.00
10,"O=C(NCCN1CCc2cc(F)ccc21)[C@H](CC1CCCCC1)NS(=O)(=O)c1ccc(OC(F)(F)F)cc1 [Compound 230, (S)-3-Cyclohexyl-N-[2-(5-fluoro-2,3-dihydro-indol-1-yl)-ethyl]-2-(4-trifluoromethoxy-benzenesulfonylamino)-propionamide]",> 6.00
11,"(S)-{2-Cyclohexyl-1-[2-(5-fluoro-2,3-dihydro-indol-1-yl)-ethylcarbamoyl]-ethyl}-carbamic acid benzyl ester [Compound 220]",> 6.00
12,"C[C@@H](CNc1ccc(OC(F)(F)F)cc1)NC(=O)[C@H](CC1CCCC1)NC(=O)OC1CCOCC1 [Compound 190, (S,S)-{2-Cyclopentyl-1-[1-methyl-2-(4-trifluoromethoxy-phenylamino)-ethylcarbamoyl]-ethyl}-carbamic acid tetrahydropyran-4-yl ester]",> 7.00
13,"CC(=O)Nc1cccc(NC[C@H](C)NC(=O)[C@H](CC2CCCCC2)NC(=O)c2ccc(-c3cccc(F)c3)o2)c1 [Compound 134, 5-(3-Fluoro-phenyl)-furan-2-carboxylic acid {1-(S)-[2-(3-acetylamino-phenylamino)-1-(S)-methyl-ethylcarbamoyl]-2-cyclohexyl-ethyl}-amide]",> 7.00
14,"C[C@@H](CNc1ccc(S(C)(=O)=O)cc1)NC(=O)[C@H](CC(C)(C)C)NC(=O)c1ccc(-c2cccc(F)c2)o1 [Compound 129, 5-(3-Fluoro-phenyl)-furan-2-carboxylic acid {1-(S)-[2-(4-methanesulfonyl-phenylamino)-1-(S)-methyl-ethylcarbamoyl]-3,3-dimethyl-butyl}-amide]",> 7.00
15,"C[C@@H](CNc1ccc(OCc2ccccc2)cc1)NC(=O)[C@H](CC1CCCCC1)NC(=O)c1ccc(-c2cccc(F)c2)o1 [Compound 266, 5-(3-Fluoro-phenyl)-furan-2-carboxylic acid {1-(S)-[2-(4-benzyloxy-phenylamino)-1-(S)-methyl-ethylcarbamoyl]-2-cyclohexyl-ethyl}-amide]",> 7.00
16,"CC[C@@H](C(=O)N[C@@H](CC1CCCCC1)C(=O)NCCN1CCc2cc(F)ccc21)c1ccccc1 [Compound 148, N-{2-cyclohexyl-1-(S)-[2-(5-fluoro-2,3-dihydro-indol-1-yl)-ethylcarbamoyl]-ethyl}-2-(R)-phenyl-butyramide]",> 7.00
17,"Cc1ccc(C(C)C(=O)N[C@@H](CC2CCCCC2)C(=O)NCCN2CCc3cc(F)ccc32)cc1 (stereo partly drawn) [Compound 60, N-{2-cyclohexyl-1-(S)-[2-(5-fluoro-2,3-dihydro-indol-1-yl)-ethylcarbamoyl]-ethyl}-2-p-tolyl-propionamide]",> 7.00
18,"CC(=O)Nc1nc(C)c(S(=O)(=O)N[C@@H](CC2CCCCC2)C(=O)NCCN2CCc3cc(F)ccc32)s1 [Compound 257, (S)-2-(2-Acetylamino-4-methyl-thiazole-5-sulfonylamino)-3-cyclohexyl-N-[2-(5-fluoro-2,3-dihydro-indol-1-yl)-ethyl]-propionamide]",> 7.00
19,"Cc1cc(NC[C@H](C)NC(=O)[C@H](CC2CCCCC2)NC(=O)c2ccc(-c3cccc(F)c3)o2)no1 [Compound 133, 5-(3-Fluoro-phenyl)-furan-2-carboxylic acid {2-cyclohexyl-1-(S)-[1-(S)-methyl-2-(5-methyl-isoxazol-3-ylamino)-ethylcarbamoyl]-ethyl}-amide]",> 6.00
20,"C[C@@H](CNc1cccc(C#N)c1)NC(=O)[C@H](CC1CCCCC1)NC(=O)c1ccc(-c2cccc(F)c2)o1 [Compound 100, 5-(3-Fluoro-phenyl)-furan-2-carboxylic acid {1-(S)-[2-(3-cyano-phenylamino)-1-(S)-methyl-ethylcarbamoyl]-2-cyclohexyl-ethyl}-amide]",> 7.00
21,"COc1cccc(C(=O)N[C@@H](CCC2CCCCC2)C(=O)NCCN2CCc3cc(OCc4ccccc4)ccc32)c1 [Compound 19, (S)-N-{3-Cyclohexyl-1-[2-(5-benzyloxy-2,3-dihydro-indol-1-yl)-ethylcarbamoyl]-propyl}-3-methoxy-benzamide]",> 5.00
